Measurements as given in ChEMBL document CHEMBL1909046, “DrugMatrix in vitro pharmacology data”.

Assays:
[1] = molecular target: Beta-2 adrenergic receptor (Homo sapiens, UniProt P07550); assay: DRUGMATRIX: Adrenergic beta2 radioligand binding (ligand: [3H] CGP-12177); assay type: cell membranes, CHO, Membrane; conditions: Not Active = under 50% inhibition at 10 µM
[2] = molecular target: C-C chemokine receptor type 2 (Homo sapiens, UniProt P41597); assay type: cell membranes, CHO-K1, Membrane; further: in other assays of this panel Not Active means under 50% inhibition at 10 µM
C-C chemokine receptor type 2, sequence (P41597 whole entry): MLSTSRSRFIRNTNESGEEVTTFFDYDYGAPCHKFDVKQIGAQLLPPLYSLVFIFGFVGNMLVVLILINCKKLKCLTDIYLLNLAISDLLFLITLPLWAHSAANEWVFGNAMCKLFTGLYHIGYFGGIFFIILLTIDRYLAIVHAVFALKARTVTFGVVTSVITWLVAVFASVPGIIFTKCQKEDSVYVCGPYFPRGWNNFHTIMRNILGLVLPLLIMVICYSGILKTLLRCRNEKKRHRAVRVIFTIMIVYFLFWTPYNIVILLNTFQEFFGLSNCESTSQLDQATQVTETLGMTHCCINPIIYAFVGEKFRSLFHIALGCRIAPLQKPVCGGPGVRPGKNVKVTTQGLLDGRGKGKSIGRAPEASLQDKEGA

[3] = molecular target: C-C chemokine receptor type 5 (Homo sapiens, UniProt P51681); assay type: cell membranes, HEK293, Membrane; further: in other assays of this panel Not Active means under 50% inhibition at 10 µM
C-C chemokine receptor type 5, sequence (P51681 whole entry): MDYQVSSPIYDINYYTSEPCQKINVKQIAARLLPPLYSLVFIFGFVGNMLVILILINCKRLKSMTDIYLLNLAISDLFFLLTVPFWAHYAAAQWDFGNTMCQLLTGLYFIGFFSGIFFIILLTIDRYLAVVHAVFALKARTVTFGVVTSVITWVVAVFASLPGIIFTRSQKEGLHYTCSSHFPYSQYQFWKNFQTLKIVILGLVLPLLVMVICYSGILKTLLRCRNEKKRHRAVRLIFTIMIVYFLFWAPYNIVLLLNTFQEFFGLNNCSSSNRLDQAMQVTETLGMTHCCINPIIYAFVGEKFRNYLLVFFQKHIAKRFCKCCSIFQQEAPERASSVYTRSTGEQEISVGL

[4] = DRUGMATRIX: GABAA, Flunitrazepam, Central radioligand binding (ligand: [3H] Flunitrazepam); assay type: cell membranes, Rattus norvegicus, Wistar, Brain, Membrane; conditions: Not Active = under 50% inhibition at 10 µM
[5] = molecular target: T1, Cysteinyl leukotriene receptor 1 (Homo sapiens, UniProt Q9Y271); assay type: cell membranes, CHO-K1, Membrane; conditions: cho-k1; further: in other assays of this panel Not Active means under 50% inhibition at 10 µM
T1 sequence (Q9Y271 whole entry): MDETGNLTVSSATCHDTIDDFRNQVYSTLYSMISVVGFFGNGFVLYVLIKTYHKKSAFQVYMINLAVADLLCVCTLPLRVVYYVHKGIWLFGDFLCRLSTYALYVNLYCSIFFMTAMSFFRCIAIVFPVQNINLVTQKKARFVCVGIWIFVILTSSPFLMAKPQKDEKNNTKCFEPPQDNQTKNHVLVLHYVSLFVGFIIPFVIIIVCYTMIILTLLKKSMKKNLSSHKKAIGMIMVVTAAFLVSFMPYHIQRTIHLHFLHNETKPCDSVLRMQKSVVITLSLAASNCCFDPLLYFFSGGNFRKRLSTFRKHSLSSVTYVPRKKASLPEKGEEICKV

Beta-2 adrenergic receptor, sequence (P07550 whole entry): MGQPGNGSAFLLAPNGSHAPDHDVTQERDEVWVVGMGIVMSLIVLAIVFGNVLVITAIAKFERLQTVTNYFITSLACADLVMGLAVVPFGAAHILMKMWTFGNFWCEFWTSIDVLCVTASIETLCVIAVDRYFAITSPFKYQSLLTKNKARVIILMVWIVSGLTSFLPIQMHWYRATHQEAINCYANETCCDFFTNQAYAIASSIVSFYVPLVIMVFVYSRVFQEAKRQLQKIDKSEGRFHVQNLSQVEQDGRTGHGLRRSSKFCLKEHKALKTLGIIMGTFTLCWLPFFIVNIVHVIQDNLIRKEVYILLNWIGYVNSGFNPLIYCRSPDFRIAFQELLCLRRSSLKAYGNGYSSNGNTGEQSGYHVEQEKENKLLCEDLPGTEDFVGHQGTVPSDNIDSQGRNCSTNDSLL

Row | SMILES | IC50 ([1]; cho) | IC50 ([2]; cho-k1) | IC50 ([3]; hek293) | IC50 [4] | Ki [4] | IC50 [5] | IC50 ([2]; read-out: IC50) [µM] | Ki ([2]; read-out: Ki) [µM] | IC50 ([3]; read-out: IC50) [µM] | Ki ([3]; read-out: Ki) [µM] | IC50 ([1]; read-out: IC50) [µM] | Ki ([1]; read-out: Ki) [µM] | IC50 ([4]; read-out: IC50) [µM] | Ki ([4]; read-out: Ki) [µM]
1 | CC(N)C12CC3CC(CC(C3)C1)C2 (configuration not stated) [RIMANTADINE] | Not Active | Not Active | Not Active | Not Active | Not Active | Not Active | – | – | – | – | – | – | – | –
2 | CS(=O)(=O)c1ccc(C2=C(c3ccccc3)C(=O)OC2)cc1 [ROFECOXIB] | Not Active | Not Active | Not Active | Not Active | Not Active | Not Active | – | – | – | – | – | – | – | –
3 | CCOc1cc(N)c(Cl)cc1C(=O)NCC1CN(Cc2ccc(F)cc2)CCO1 (configuration not stated) [MOSAPRIDE] | Not Active | Not Active | Not Active | Not Active | Not Active | Not Active | – | – | – | – | – | – | – | –
4 | Cc1ccnc(NS(=O)(=O)c2ccc(N)cc2)n1 [SULFAMERAZINE] | Not Active | Not Active | Not Active | Not Active | Not Active | Not Active | – | – | – | – | – | – | – | –
5 | OC[C@@H](O)[C@@H](O)[C@H](O)[C@H](O)CO [MANNITOL] | Not Active | Not Active | Not Active | Not Active | Not Active | Not Active | – | – | – | – | – | – | – | –
6 | Oc1ccc(/C=C/c2cc(O)cc(O)c2)cc1 [RESVERATROL] | Not Active | Not Active | Not Active | Not Active | Not Active | Not Active | – | – | – | – | – | – | – | –
7 | CC1=C(/C=C/C(C)=C/C=C/C(C)=C/C(=O)O)C(C)(C)CCC1 [TRETINOIN] | Not Active | Not Active | Not Active | Not Active | Not Active | Not Active | – | – | – | – | – | – | – | –
8 | C=CCc1ccc2c(c1)OCO2 [SAFROLE] | Not Active | Not Active | Not Active | Not Active | Not Active | Not Active | – | – | – | – | – | – | – | –
9 | CCN(CC)N=O [N-NITROSODIETHYLAMINE] | Not Active | Not Active | Not Active | Not Active | Not Active | Not Active | – | – | – | – | – | – | – | –
10 | CCN1CCCC1CNC(=O)c1cc(S(N)(=O)=O)ccc1OC (configuration not stated) [SULPIRIDE] | Not Active | Not Active | Not Active | Not Active | Not Active | Not Active | – | – | – | – | – | – | – | –
11 | O=C1CC[C@@]2(O)[C@H]3Cc4ccc(O)c5c4[C@@]2(CCN3CC2CC2)[C@H]1O5 [NALTREXONE] | Not Active | Not Active | Not Active | Not Active | Not Active | Not Active | – | – | – | – | – | – | – | –
12 | C[N+]1(C)[C@@H]2C[C@@H](OC(=O)[C@H](CO)c3ccccc3)C[C@H]1[C@@H]1O[C@@H]12.[Br-] [METHSCOPOLAMINE BROMIDE] | Not Active | Not Active | Not Active | Not Active | Not Active | Not Active | – | – | – | – | – | – | – | –
13 | CCN(CC)CCNC(=O)c1cc(Cl)c(N)cc1OC [METOCLOPRAMIDE] | Not Active | Not Active | Not Active | Not Active | Not Active | Not Active | – | – | – | – | – | – | – | –
14 | O=C(OC[C@H]1O[C@@H](OC(=O)c2cc(O)c(O)c(OC(=O)c3cc(O)c(O)c(O)c3)c2)[C@H](OC(=O)c2cc(O)c(O)c(OC(=O)c3cc(O)c(O)c(O)c3)c2)[C@@H](OC(=O)c2cc(O)c(O)c(OC(=O)c3cc(O)c(O)c(O)c3)c2)[C@@H]1OC(=O)c1cc(O)c(O)c(OC(=O)c2cc(O)c(O)c(O)c2)c1)c1cc(O)c(O)c(OC(=O)c2cc(O)c(O)c(O)c2)c1 [TANNIC ACID] | Not Active | Not Active | Not Active | Not Active | Not Active | Not Active | – | – | – | – | – | – | – | –
15 | CN1C(=O)OC(C)(C)C1=O [TRIMETHADIONE] | Not Active | Not Active | Not Active | Not Active | Not Active | Not Active | – | – | – | – | – | – | – | –
16 | Cc1cn([C@H]2C=C[C@@H](CO)O2)c(=O)[nH]c1=O [STAVUDINE] | Not Active | Not Active | Not Active | Not Active | Not Active | Not Active | – | – | – | – | – | – | – | –
17 | CN1C[C@H](CNC(=O)OCc2ccccc2)C[C@@H]2c3cccc4c3c(cn4C)C[C@H]21 [METERGOLINE] | Not Active | Not Active | Not Active | Not Active | Not Active | Not Active | – | – | – | – | – | – | – | –
18 | CCN(CC)C(=S)SSC(=S)N(CC)CC | Not Active | – | – | Not Active | Not Active | Not Active | 2.47 | 0.954 | 23.7 | 18.3 | – | – | – | –

Row | SMILES | IC50 ([1]; cho) | IC50 ([2]; cho-k1) | IC50 ([3]; hek293) | IC50 [4] | Ki [4] | IC50 [5] | IC50 ([2]; read-out: IC50) [µM] | Ki ([2]; read-out: Ki) [µM] | IC50 ([3]; read-out: IC50) [µM] | Ki ([3]; read-out: Ki) [µM] | IC50 ([1]; read-out: IC50) [µM] | Ki ([1]; read-out: Ki) [µM] | IC50 ([4]; read-out: IC50) [µM] | Ki ([4]; read-out: Ki) [µM]
19 | Cc1cc2c(s1)Nc1ccccc1N=C2N1CCN(C)CC1 [OLANZAPINE] | Not Active | Not Active | Not Active | – | – | Not Active | – | – | – | – | – | – | – | –
20 | CC(C)(C)NC[C@H](O)COc1cccc2c1CCCC2=O [LEVOBUNOLOL] | – | Not Active | Not Active | Not Active | Not Active | Not Active | – | – | – | – | 0.000793 | 0.000546 | – | –
21 | Nc1nc(N)c2nc(-c3ccccc3)c(N)nc2n1 | Not Active | Not Active | Not Active | Not Active | Not Active | Not Active | – | – | – | – | – | – | – | –
22 | Cc1ccc(S(=O)(=O)NC(=O)NN2CCCCCC2)cc1 [TOLAZAMIDE] | Not Active | Not Active | Not Active | Not Active | Not Active | Not Active | – | – | – | – | – | – | – | –
23 | Cc1ccc(Cl)c(Nc2ccccc2C(=O)O)c1Cl [MECLOFENAMIC ACID] | Not Active | Not Active | Not Active | Not Active | Not Active | Not Active | – | – | – | – | – | – | – | –
24 | CO[C@@H]1[C@@H](OC)[C@H](C)[C@@](O)(CC(=O)O)O[C@H]1[C@H](C)[C@H]1O[C@@]2(CC[C@@](C)([C@H]3CC[C@@](C)([C@@H]4O[C@@H]([C@H]5O[C@](C)(O)[C@H](C)C[C@@H]5C)C[C@@H]4O[C@@H]4C[C@H](OC)[C@@H](OC)[C@H](C)O4)O3)O2)C[C@H](O)[C@H]1C.N [MADURAMICIN] | Not Active | Not Active | Not Active | Not Active | Not Active | Not Active | – | – | – | – | – | – | – | –
25 | CCC(C)(C)C(=O)O[C@H]1C[C@@H](C)C=C2C=C[C@H](C)[C@H](CC[C@@H]3C[C@@H](O)CC(=O)O3)[C@H]21 [SIMVASTATIN] | Not Active | Not Active | Not Active | Not Active | Not Active | Not Active | – | – | – | – | – | – | – | –
26 | CN(C)CCC=C1c2ccccc2COc2ccccc21 [DOXEPIN] | – | Not Active | Not Active | – | – | Not Active | – | – | – | – | – | – | – | –
27 | C#C[C@]1(O)CC[C@H]2[C@@H]3[C@H](C)CC4=C(CCC(=O)C4)[C@H]3CC[C@@]21C [TIBOLONE] | Not Active | Not Active | Not Active | Not Active | Not Active | Not Active | – | – | – | – | – | – | – | –
28 | Cc1nnc(NS(=O)(=O)c2ccc(N)cc2)s1 [SULFAMETHIZOLE] | Not Active | Not Active | Not Active | Not Active | Not Active | Not Active | – | – | – | – | – | – | – | –
29 | C[C@]12CCC(=O)C[C@@H]1CC[C@@H]1[C@@H]2CC[C@]2(C)[C@@H](O)CC[C@@H]12 [STANOLONE] | Not Active | Not Active | Not Active | Not Active | Not Active | Not Active | – | – | – | – | – | – | – | –
30 | CO[C@@]12[C@H](COC(N)=O)C3=C(C(=O)C(C)=C(N)C3=O)N1C[C@@H]1N[C@@H]12 [MITOMYCIN] | Not Active | Not Active | Not Active | Not Active | Not Active | Not Active | – | – | – | – | – | – | – | –
31 | Cc1[nH]c(=O)c(C#N)cc1-c1ccncc1 [MILRINONE] | Not Active | Not Active | Not Active | Not Active | Not Active | Not Active | – | – | – | – | – | – | – | –
32 | CC(Cl)(Cl)Cl [TRICHLOROETHANE] | Not Active | Not Active | Not Active | Not Active | Not Active | Not Active | – | – | – | – | – | – | – | –
33 | CC[C@H](C)C(=O)O[C@H]1CCC=C2C=C[C@H](C)[C@H](CC[C@@H]3C[C@@H](O)CC(=O)O3)[C@H]21 [MEVASTATIN] | Not Active | Not Active | Not Active | Not Active | Not Active | Not Active | – | – | – | – | – | – | – | –
34 | CC(=O)O[C@]1(C(C)=O)CC[C@H]2[C@@H]3C[C@H](C)C4=CC(=O)CC[C@]4(C)[C@H]3CC[C@@]21C [MEDROXYPROGESTERONE ACETATE] | Not Active | Not Active | Not Active | – | – | Not Active | – | – | – | – | – | – | 7.74 | 6.3
35 | CC[C@@]1(O)C(=O)OCc2c1cc1n(c2=O)Cc2cc3c(CN(C)C)c(O)ccc3nc2-1 [TOPOTECAN] | Not Active | Not Active | Not Active | Not Active | Not Active | Not Active | – | – | – | – | – | – | – | –
36 | CNCCCC12CCC(c3ccccc31)c1ccccc12 [MAPROTILINE] | Not Active | Not Active | Not Active | – | – | Not Active | – | – | – | – | – | – | – | –
